ChEMBL document CHEMBL3244013, “Central nervous system activity of a novel class of annelated 1,4-benzodiazepines, aminomethylene-2,4-dihydro-1H-imidazo[1,2-a][1,4]benzodiazepin-1-ones” (J Med Chem, 1977)

Tests used:
Mus musculus [1] = assay: Induction of muscle relaxation in po dosed CD-1 mouse after 30 mins by rotary drum test; format: functional; details: CD-1, po, 0.5 h
Mus musculus [2] = assay: Anticonvulsant activity in po dosed CD-1 mouse assessed as protection against pentylenetetrazole-induced convulsion; format: functional; details: CD-1, po
Mus musculus [3] = assay: Anticonvulsant activity in po dosed CD-1 mouse assessed as protection against strychnine-induced convulsion after 30 mins; format: functional; details: CD-1, po, 0.5 h
Mus musculus [4] = assay: Potentiation of hexobarbital-induced sedative effect in po dosed CD-1 mouse assessed as loss of righting reflex after 30 secs; format: functional; details: CD-1, po
Mus musculus [5] = assay: Antianxiety activity in po dosed CD-1 mouse assessed as inhibition of foot shock-induced aggression after 30 mins relative to control; format: functional; details: CD-1, po, 0.5 h
Mus musculus [6] = assay: Anticonvulsant activity in po dosed CD-1 mouse assessed as protection against maximal electroshock-induced convulsion; format: functional; details: CD-1, po
Mus musculus [7] = assay: Acute toxicity in po dosed CD-1 mouse assessed as mortality after 24 hrs; format: organism-based; details: in vivo
Mus musculus [8] = assay: Potentiation of chlorprothixene-induced sedative effect in po dosed CD-1 mouse assessed as loss of righting reflex; format: functional; details: CD-1, po

| Compound | ED50 (Mus musculus [1]) | ED50 (Mus musculus [2]) | ED50 (Mus musculus [3]) | ED50 (Mus musculus [4]) | ED50 (Mus musculus [5]) | ED50 (Mus musculus [6]) | ED50 (Mus musculus [7]) | ED50 (Mus musculus [8]) |
| --- | --- | --- | --- | --- | --- | --- | --- | --- |
| CCN1CCN(/C=C2\N=C3CN=C(c4ccccc4F)c4cc([N+](=O)[O-])ccc4N3C2=O)CC1 | 0.37 mg/kg | 0.18 mg/kg | 3.75 mg/kg | 0.72 mg/kg | 0.64 mg/kg | 2.6 mg/kg | > 1000 mg/kg | 4 mg/kg |
| C/C(=C1/N=C2CN=C(c3ccccc3)c3cc(Cl)ccc3N2C1=O)N1CCNCC1 | > 50 mg/kg | 4 mg/kg | > 50 mg/kg | 5.2 mg/kg | > 20 mg/kg | 14 mg/kg | > 1000 mg/kg | > 50 mg/kg |
| CCN/C=C1\N=C2CN=C(c3ccccc3)c3cc(Cl)ccc3N2C1=O | 1.8 mg/kg | 4 mg/kg | > 50 mg/kg | 7.2 mg/kg | 1.45 mg/kg | 10 mg/kg | > 1000 mg/kg | > 10 mg/kg |
| CN1CCN(/C=C2\N=C3CN=C(c4ccccc4)c4cc(Cl)ccc4N3C2=O)CC1 | 4.2 mg/kg | 0.9 mg/kg | 7.1 mg/kg | 4.9 mg/kg | 2.65 mg/kg | 2.1 mg/kg | > 1000 mg/kg | 4.6 mg/kg |
| CN1CCN(/C=C2\N=C3CN=C(c4ccccc4Cl)c4cc([N+](=O)[O-])ccc4N3C2=O)CC1 [LOPRAZOLAM] | 2.2 mg/kg | 0.028 mg/kg | 0.41 mg/kg | 1 mg/kg | 0.42 mg/kg | 0.76 mg/kg | > 1000 mg/kg | 1.1 mg/kg |
| O=CN1CCN(/C=C2\N=C3CN=C(c4ccccc4)c4cc(Cl)ccc4N3C2=O)CC1 |  |  |  |  | > 20 mg/kg |  | > 1000 mg/kg | > 50 mg/kg |
| CCN/C=C1\N=C2CN=C(c3ccccc3Cl)c3cc(Cl)ccc3N2C1=O | 11.5 mg/kg | 0.39 mg/kg | 25 mg/kg | 0.27 mg/kg | 1 mg/kg | 18 mg/kg | > 1000 mg/kg | 9.6 mg/kg |
| CCN1CCN(/C=C2\N=C3CN=C(c4ccccc4Cl)c4cc([N+](=O)[O-])ccc4N3C2=O)CC1 | 0.46 mg/kg | 0.15 mg/kg | 2.8 mg/kg | 0.8 mg/kg | 0.34 mg/kg | 2.8 mg/kg | > 1000 mg/kg | 0.99 mg/kg |
| CC(C)(C)N/C=C1\N=C2CN=C(c3ccccc3)c3cc(Cl)ccc3N2C1=O | 14.5 mg/kg | 3.25 mg/kg | > 50 mg/kg | 5 mg/kg | 1.1 mg/kg | 19 mg/kg | > 1000 mg/kg | 14 mg/kg |
| CN(C)c1ccc(/C=C2\N=C3CN=C(c4ccccc4)c4cc(Cl)ccc4N3C2=O)cc1 | > 50 mg/kg | > 50 mg/kg | > 50 mg/kg | > 50 mg/kg | > 20 mg/kg |  | > 1000 mg/kg |  |
| CCCN/C=C1\NC2CN=C(c3ccccc3)c3cc(Cl)ccc3N2C1=O (stereo unspecified) | 2.8 mg/kg | 1.55 mg/kg | > 50 mg/kg | 3.9 mg/kg | 0.92 mg/kg | 4 mg/kg | > 1000 mg/kg | 2.6 mg/kg |
| O=C1/C(=C/N2CCN(CC3CC3)CC2)N=C2CN=C(c3ccccc3)c3cc(Cl)ccc3N12 | 6.2 mg/kg | 3.5 mg/kg | 30 mg/kg | 30 mg/kg | 4.65 mg/kg | 10.5 mg/kg | > 1000 mg/kg | 25 mg/kg |
| O=C1/C(=C/NC2CCCCC2)N=C2CN=C(c3ccccc3)c3cc(Cl)ccc3N12 |  | 2.35 mg/kg | 15 mg/kg | 8.3 mg/kg | 1.4 mg/kg | 8.5 mg/kg | > 1000 mg/kg | 6.2 mg/kg |
| CCN(CC)CCN/C=C1\N=C2CN=C(c3ccccc3)c3cc(Cl)ccc3N2C1=O | > 50 mg/kg | 16 mg/kg | > 50 mg/kg | > 50 mg/kg | > 20 mg/kg | > 50 mg/kg | > 1000 mg/kg | > 50 mg/kg |
| O=C1/C(=C/c2ccccc2)N=C2CN=C(c3ccccc3)c3cc(Cl)ccc3N12 |  | > 50 mg/kg | > 50 mg/kg | > 50 mg/kg |  |  | > 1000 mg/kg |  |
| CCCN/C=C1\N=C2CN=C(c3ccccc3Cl)c3cc(Cl)ccc3N2C1=O | 8 mg/kg | 1 mg/kg | > 25 mg/kg | 0.06 mg/kg | 2.4 mg/kg | > 30 mg/kg | > 1000 mg/kg | 5.6 mg/kg |
| O=C1/C(=C/N2CCN(c3ccccc3)CC2)N=C2CN=C(c3ccccc3)c3cc(Cl)ccc3N12 | > 50 mg/kg | 26 mg/kg | > 50 mg/kg | > 50 mg/kg | > 50 mg/kg | > 50 mg/kg | > 1000 mg/kg | > 50 mg/kg |
| CCN1CCN(/C=C2\N=C3CN=C(c4ccccc4F)c4cc(Cl)ccc4N3C2=O)CC1 | 0.7 mg/kg | 0.155 mg/kg | 1.6 mg/kg | 2.8 mg/kg | 0.48 mg/kg | 1.55 mg/kg | > 1000 mg/kg | 2.35 mg/kg |

| Compound | ED50 (Mus musculus [1]) | ED50 (Mus musculus [2]) | ED50 (Mus musculus [3]) | ED50 (Mus musculus [4]) | ED50 (Mus musculus [5]) | ED50 (Mus musculus [6]) | ED50 (Mus musculus [7]) | ED50 (Mus musculus [8]) |
| --- | --- | --- | --- | --- | --- | --- | --- | --- |
| O=C1/C(=C/N2CCOCC2)N=C2CN=C(c3ccccc3)c3cc(Cl)ccc3N12 | 29 mg/kg | 2.3 mg/kg | > 50 mg/kg | > 50 mg/kg | 2.4 mg/kg | 7 mg/kg | > 1000 mg/kg | 20.3 mg/kg |
| O=C1/C(=C/N2CCCCC2)N=C2CN=C(c3ccccc3)c3cc(Cl)ccc3N12 |  | 16 mg/kg | > 50 mg/kg | 1 mg/kg | > 20 mg/kg | > 50 mg/kg | > 1000 mg/kg | > 50 mg/kg |
| O=C1/C(=C/N2CCNCC2)N=C2CN=C(c3ccccc3)c3cc(Cl)ccc3N12 | > 50 mg/kg | 1.95 mg/kg | > 50 mg/kg | 7.5 mg/kg | > 20 mg/kg | > 50 mg/kg | > 1000 mg/kg | 23 mg/kg |
| CCN1CCN(/C=C2\N=C3CN=C(c4ccccc4Cl)c4cc(Cl)ccc4N3C2=O)CC1 | 0.56 mg/kg | 0.087 mg/kg | 2.3 mg/kg | 2.5 mg/kg | 0.5 mg/kg | 2.2 mg/kg | > 1000 mg/kg | 1.2 mg/kg |
| CN1CCN(/C=C2\N=C3CN=C(c4ccccc4F)c4cc([N+](=O)[O-])ccc4N3C2=O)CC1 | 1.5 mg/kg | 0.13 mg/kg | 0.46 mg/kg | 0.8 mg/kg | 0.26 mg/kg | 1.2 mg/kg | > 1000 mg/kg | 1.6 mg/kg |
| CC(C)N1CCN(/C=C2\N=C3CN=C(c4ccccc4)c4cc(Cl)ccc4N3C2=O)CC1 | 12 mg/kg | 1.25 mg/kg | 5.8 mg/kg | 6.6 mg/kg | 2.1 mg/kg | 7 mg/kg | > 1000 mg/kg | 6.4 mg/kg |
| O=C1/C(=C/NCCO)N=C2CN=C(c3ccccc3)c3cc(Cl)ccc3N12 | 2.6 mg/kg |  | 16 mg/kg | 3.6 mg/kg | 1.5 mg/kg | 9.5 mg/kg | > 1000 mg/kg |  |
| CN1CCCC/C1=C1\N=C2CN=C(c3ccccc3)c3cc(Cl)ccc3N2C1=O | > 50 mg/kg |  |  |  | 20 mg/kg | > 50 mg/kg | > 1000 mg/kg |  |
| CN(C)/C=C1\N=C2CN=C(c3ccccc3)c3cc(Cl)ccc3N2C1=O | > 50 mg/kg | 5 mg/kg | > 50 mg/kg | > 50 mg/kg | 14 mg/kg | 42 mg/kg | > 1000 mg/kg | > 50 mg/kg |
| N/C=C1\N=C2CN=C(c3ccccc3)c3cc(Cl)ccc3N2C1=O | > 50 mg/kg | 7.1 mg/kg | > 50 mg/kg | 1.65 mg/kg |  | > 50 mg/kg | > 1000 mg/kg | 4.3 mg/kg |
| C=CCN1CCN(/C=C2\N=C3CN=C(c4ccccc4)c4cc(Cl)ccc4N3C2=O)CC1 | 13 mg/kg | 21 mg/kg | > 50 mg/kg | 25 mg/kg | 2.3 mg/kg | 13.5 mg/kg | > 1000 mg/kg | 18 mg/kg |
| CN1CCN(/C=C2\N=C3CN=C(c4ccccc4)c4cc([N+](=O)[O-])ccc4N3C2=O)CC1 | 8.6 mg/kg | 0.92 mg/kg | 6.6 mg/kg | 3.6 mg/kg | 2.2 mg/kg | 4.2 mg/kg | > 1000 mg/kg | 4.5 mg/kg |
| CN1CCN(/C=C2\N=C3CN=C(c4ccccc4Cl)c4cc(Cl)ccc4N3C2=O)CC1 | 0.78 mg/kg | 0.165 mg/kg | 1.8 mg/kg | 0.074 mg/kg | 0.2 mg/kg | 2.1 mg/kg | > 1000 mg/kg | 1.6 mg/kg |
| O=C1/C(=C/N2CCSCC2)N=C2CN=C(c3ccccc3)c3cc(Cl)ccc3N12 | > 50 mg/kg | > 50 mg/kg | > 50 mg/kg | > 50 mg/kg | > 20 mg/kg | > 50 mg/kg | > 1000 mg/kg | > 50 mg/kg |
| CN(C)CCN(C)/C=C1\N=C2CN=C(c3ccccc3)c3cc(Cl)ccc3N2C1=O | > 50 mg/kg |  | > 50 mg/kg | > 50 mg/kg |  |  | > 1000 mg/kg | > 50 mg/kg |
| CCCN1CCN(/C=C2\N=C3CN=C(c4ccccc4)c4cc(Cl)ccc4N3C2=O)CC1 | 1.1 mg/kg | 1 mg/kg | 6.4 mg/kg | 3.6 mg/kg | 1.3 mg/kg | 2.7 mg/kg | > 1000 mg/kg | 3.2 mg/kg |
| CN/C=C1\N=C2CN=C(c3ccccc3)c3cc(Cl)ccc3N2C1=O |  |  | > 50 mg/kg | > 50 mg/kg | 5.3 mg/kg |  | > 1000 mg/kg | > 50 mg/kg |
| CNC1=Nc2ccc(Cl)cc2C(c2ccccc2)=[N+]([O-])C1 [CHLORDIAZEPOXIDE] | 6.8 mg/kg | 1.9 mg/kg | 5 mg/kg | 64 mg/kg | 7 mg/kg | 8 mg/kg |  | 4 mg/kg |
